Reference: ChEMBL document CHEMBL1201861, “Genomics of Drug Sensitity in Cancer screening data, Wellcome Trust Sanger Institute”

Experiments:
Assay in all cases: cells
MDA-MB-453 = type: functional, cell-based, Homo sapiens; details: Homo sapiens, MDA-MB-453
Description: SANGER: Inhibition of human MDA-MB-453 cell growth in a cell viability assay.

BHY = type: functional, cell-based, Homo sapiens; details: Homo sapiens, BHY;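 note: cell growth inhibition read out by a viability assay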
Description: SANGER: Inhibition of human BHY cell growth in a cell viability assay.

RXF 393 = type: functional, cell-based; details: Homo sapiens;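 note: growth inhibition of human RXF 393 cells, read out with a cell viability assay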
Description: SANGER: Inhibition of human RXF393 cell growth in a cell viability assay.

K5 = type: functional, cell-based, Homo sapiens; details: Homo sapiens, K5
Description: SANGER: Inhibition of human K5 cell growth in a cell viability assay.

NCI-H510A = type: functional, cell-based; details: Homo sapiens;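 note: growth inhibition of NCI-H510A cells, read out with a cell viability assay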
Description: SANGER: Inhibition of human NCI-H510A cell growth in a cell viability assay.

KGN = type: functional, cell-based, Homo sapiens; details: Homo sapiens, KGN;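 note: growth inhibition of KGN cells, read out with a cell viability assay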
Description: SANGER: Inhibition of human KGN cell growth in a cell viability assay.

RH-1 = type: functional, cell-based, Homo sapiens; details: Homo sapiens, RH-1;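 note: growth inhibition of human RH-1 cells, read out with a cell viability assay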
Description: SANGER: Inhibition of human RH-1 cell growth in a cell viability assay.

TE-10 = type: functional, cell-based, Homo sapiens; details: Homo sapiens, TE-10;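 note: growth inhibition of TE-10 cells, measured by a cell viability assay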
Description: SANGER: Inhibition of human TE-10 cell growth in a cell viability assay.

MKN-45 = type: functional, cell-based, Homo sapiens; details: Homo sapiens, MKN-45;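 note: growth inhibition of human MKN-45 cells, measured with a cell viability assay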
Description: SANGER: Inhibition of human MKN45 cell growth in a cell viability assay.

MZ7-mel = type: functional, cell-based, Homo sapiens; details: Homo sapiens, MZ7-mel;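 note: growth inhibition of human MZ7-mel cells, measured by a cell viability assay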
Description: SANGER: Inhibition of human MZ7-mel cell growth in a cell viability assay.

RPMI-7951 = type: functional, cell-based, Homo sapiens; details: Homo sapiens, RPMI-7951
Description: SANGER: Inhibition of human RPMI-7951 cell growth in a cell viability assay.

JAR = type: functional, cell-based, Homo sapiens; details: Homo sapiens, JAR;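 note: growth inhibition of human JAR cells determined with a cell viability assay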
Description: SANGER: Inhibition of human JAR cell growth in a cell viability assay.

CAS-1 = type: functional, cell-based, Homo sapiens; details: Homo sapiens, CAS-1;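 note: growth inhibition of CAS-1 cells, measured with a cell viability assay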
Description: SANGER: Inhibition of human CAS-1 cell growth in a cell viability assay.

T47D = type: functional, cell-based, Homo sapiens; details: Homo sapiens, T47D;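 note: growth inhibition of human T47D cells, measured with a cell viability assay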
Description: SANGER: Inhibition of human T47D cell growth in a cell viability assay.

Capan-2 = type: functional, cell-based, Homo sapiens; details: Homo sapiens, Capan-2;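 note: Capan-2 cell growth inhibition, read out with a viability assay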
Description: SANGER: Inhibition of human Capan-2 cell growth in a cell viability assay.

SCC-9 = type: functional, cell-based, Homo sapiens; details: Homo sapiens, SCC-9;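 note: Read-out is a cell viability assay, with values giving inhibition of cell growth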
Description: SANGER: Inhibition of human SCC-9 cell growth in a cell viability assay.

KY821 = type: functional, cell-based; details: Homo sapiens;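 note: growth inhibition of human KY821 cells, read out by a cell viability assay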
Description: SANGER: Inhibition of human KY821 cell growth in a cell viability assay.

SW780 = type: functional, cell-based, Homo sapiens; details: Homo sapiens, SW780;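 note: growth inhibition of the cells, read out with a cell viability assay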
Description: SANGER: Inhibition of human SW780 cell growth in a cell viability assay.

Detroit 562 = type: functional, cell-based, Homo sapiens; details: Homo sapiens, Detroit 562;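 note: growth inhibition of human Detroit 562 cells, read out by a cell viability assay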
Description: SANGER: Inhibition of human Detroit562 cell growth in a cell viability assay.

KG-1 = type: functional, cell-based; details: Homo sapiens;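 note: growth inhibition of KG-1 cells, read out by a cell viability assay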
Description: SANGER: Inhibition of human KG-1 cell growth in a cell viability assay.

MKN-28 = type: functional, cell-based, Homo sapiens; details: Homo sapiens, MKN-28;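 note: cell viability assay read-out, IC50 reflects suppression of growth of human MKN-28 cells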
Description: SANGER: Inhibition of human MKN28 cell growth in a cell viability assay.

NKM-1 = type: functional, cell-based; details: Homo sapiens;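 note: growth inhibition of NKM-1 cells, read out with a cell viability assay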
Description: SANGER: Inhibition of human NKM-1 cell growth in a cell viability assay.

ES3 = type: functional, cell-based, Homo sapiens; details: Homo sapiens, ES3;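 note: growth inhibition of ES3 cells, read out with a cell viability assay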
Description: SANGER: Inhibition of human ES3 cell growth in a cell viability assay.

AM-38 = type: functional, cell-based, Homo sapiens; details: Homo sapiens, AM-38;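 note: growth inhibition of AM-38 cells of human origin, read out by a cell viability assay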
Description: SANGER: Inhibition of human AM-38 cell growth in a cell viability assay.

BHT-101 = type: functional, cell-based, Homo sapiens; details: Homo sapiens, BHT-101
Description: SANGER: Inhibition of human BHT-101 cell growth in a cell viability assay.

RT-112 = type: functional, cell-based, Homo sapiens; details: Homo sapiens, RT-112
Description: SANGER: Inhibition of human RT-112 cell growth in a cell viability assay.

ES5 = type: functional, cell-based, Homo sapiens; details: Homo sapiens, ES5;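 note: growth inhibition of human ES5 cells, read out by a cell viability assay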
Description: SANGER: Inhibition of human ES5 cell growth in a cell viability assay.

SAS = type: functional, cell-based, Homo sapiens; details: Homo sapiens, SAS;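 note: growth inhibition of SAS cells, read out with a cell viability assay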
Description: SANGER: Inhibition of human SAS cell growth in a cell viability assay.

RKO = type: functional, cell-based, Homo sapiens; details: Homo sapiens, RKO;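 note: growth inhibition of human RKO cells, read out with a cell viability assay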
Description: SANGER: Inhibition of human RKO cell growth in a cell viability assay.

NCI-H23 = type: functional, cell-based, Homo sapiens; details: Homo sapiens, NCI-H23;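 note: cell viability assay measuring growth inhibition of NCI-H23 cells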
Description: SANGER: Inhibition of human NCI-H23 cell growth in a cell viability assay.

CAL-85-1 = type: functional, cell-based; details: Homo sapiens;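 note: growth inhibition of human CAL-85-1 cells, read out with a cell viability assay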
Description: SANGER: Inhibition of human CAL-85-1 cell growth in a cell viability assay.

SCC-25 = type: functional, cell-based, Homo sapiens; details: Homo sapiens, SCC-25;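 note: growth inhibition of SCC-25 cells, measured with a cell viability assay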
Description: SANGER: Inhibition of human SCC-25 cell growth in a cell viability assay.

A 172 = type: functional, cell-based, Homo sapiens; details: Homo sapiens, A 172;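 note: growth inhibition of A172 cells, measured with a cell viability readout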
Description: SANGER: Inhibition of human A172 cell growth in a cell viability assay.

VMRC-RCZ = type: functional, cell-based; details: Homo sapiens;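 note: growth inhibition measured with a cell viability assay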
Description: SANGER: Inhibition of human VMRC-RCZ cell growth in a cell viability assay.

NCI-H2170 = type: functional, cell-based, Homo sapiens; details: Homo sapiens, NCI-H2170;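 note: cell viability assay measuring growth inhibition of human NCI-H2170 cancer cells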
Description: SANGER: Inhibition of human NCI-H2170 cell growth in a cell viability assay.

ONS-76 = type: functional, cell-based, Homo sapiens; details: Homo sapiens, ONS-76;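 note: growth inhibition of human ONS-76 cells, read out with a cell viability assay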
Description: SANGER: Inhibition of human ONS-76 cell growth in a cell viability assay.

P12-Ichikawa = type: functional, cell-based; details: Homo sapiens
SF-268 = type: functional, cell-based, Homo sapiens; details: Homo sapiens, SF-268;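 note: growth inhibition of SF-268 cells determined with a cell viability assay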
Description: SANGER: Inhibition of human SF268 cell growth in a cell viability assay.

MDA-MB-361 = type: functional, cell-based, Homo sapiens; details: Homo sapiens, MDA-MB-361
LNCaP-Clone-FGC = type: functional, cell-based, Homo sapiens; details: Homo sapiens, LNCaP-Clone-FGC
Description: SANGER: Inhibition of human LNCaP-Clone-FGC cell growth in a cell viability assay.

LB771-HNC = type: functional, cell-based, Homo sapiens; details: Homo sapiens, LB771-HNC;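 note: growth inhibition of LB771-HNC human cells, read out with a cell viability assay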
Description: SANGER: Inhibition of human LB771-HNC cell growth in a cell viability assay.

LS-123 = type: functional, cell-based, Homo sapiens; details: Homo sapiens, LS-123
Description: SANGER: Inhibition of human LS-123 cell growth in a cell viability assay.

KALS-1 = type: functional, cell-based, Homo sapiens; details: Homo sapiens, KALS-1;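 note: growth inhibition of KALS-1 cells, determined with a cell viability assay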
Description: SANGER: Inhibition of human KALS-1 cell growth in a cell viability assay.

KOSC-2 = type: functional, cell-based, Homo sapiens; details: Homo sapiens, KOSC-2;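 note: growth inhibition of KOSC-2 cells, read out by a cell viability assay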
Description: SANGER: Inhibition of human KOSC-2 cell growth in a cell viability assay.

GAK = type: functional, cell-based, Homo sapiens; details: Homo sapiens, GAK;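 note: cell growth inhibition read out by a cell viability assay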
Description: SANGER: Inhibition of human GAK cell growth in a cell viability assay.

COLO-678 = type: functional, cell-based, Homo sapiens; details: Homo sapiens, COLO-678
Description: SANGER: Inhibition of human COLO-678 cell growth in a cell viability assay.

NCI-H747 = type: functional, cell-based; details: Homo sapiens;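 note: growth inhibition of human NCI-H747 cells, read out by a cell viability assay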
Description: SANGER: Inhibition of human NCI-H747 cell growth in a cell viability assay.

PC-14 = type: functional, cell-based, Homo sapiens; details: Homo sapiens, PC-14;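 note: cell viability assay measuring inhibition of PC-14 cell growth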
Description: SANGER: Inhibition of human PC-14 cell growth in a cell viability assay.

NOMO-1 = type: functional, cell-based; details: Homo sapiens;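 note: growth inhibition of human NOMO-1 cells measured by a cell viability assay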
Description: SANGER: Inhibition of human NOMO-1 cell growth in a cell viability assay.

FTC-133 = type: functional, cell-based, Homo sapiens; details: Homo sapiens, FTC-133
KE-37 = type: functional, cell-based; details: Homo sapiens;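 note: growth inhibition of KE-37 cells, read out with a cell viability assay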
Description: SANGER: Inhibition of human KE-37 cell growth in a cell viability assay.

KS-1 = type: functional, cell-based, Homo sapiens; details: Homo sapiens, KS-1;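 note: growth inhibition of KS-1 cells, read out with a cell viability assay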
Description: SANGER: Inhibition of human KS-1 cell growth in a cell viability assay.

Measured: IC50

C[C@]1(O)C[C@@H](c2nc(-c3ccc4ccc(-c5ccccc5)nc4c3)c3c(N)nccn32)C1 [LINSITINIB]
0.259 µM: LB771-HNC
1.12 µM: ES3
0.0384 µM: KS-1
1.23 µM: CAL-85-1
0.749 µM: RH-1
> 2.56 µM: all other assays above

O=C(c1cc(Cc2n[nH]c(=O)c3ccccc23)ccc1F)N1CCN(C(=O)C2CC2)CC1 [OLAPARIB]
2.88 µM: ES5
1.25 µM: NKM-1
3.83 µM: NCI-H510A
> 5 µM: all other assays above
